{
  "source": "paper PMC7933930",
  "about": "“Development of a small molecule that corrects misfolding and increases secretion of Z α1‐antitrypsin” (EMBO Molecular Medicine, 2021)",
  "key": {"[1]": {"test_system": "human hepatocytes", "test": "Hepatocyte clearance, human", "format": "in vitro ADME", "protocol": "Williams E media supplemented with 2 mM L‐glutamine and 25 mM HEPES and test compound (final compound concentration 0.5 µM; final DMSO concentration 0.25% v/v) were preincubated at 37°C prior to the addition of a suspension of cryopreserved pooled hepatocytes (final cell density 0.5 × 10^6 viable cells/ml) to initiate the reaction. The final incubation volume was 500 µl. The reactions were stopped by transferring 50 µl of incubate to 100 µl acetonitrile containing internal standard at the appropriate time points (0, 5, 10, 20, 40 and 60 min, 0, 10, 20, 40, 60 and 120 min or 0, 20, 40, 60, 120 and 240 min). The control (lysed cells or vehicle) was incubated for 60, 120 or 240 min only. The termination plates were centrifuged at 2,500 rpm at 4°C for 30 min to precipitate the protein. Following protein precipitation, the sample supernatants were analysed by LC‐MS/MS. From a plot of loge peak area ratio (compound peak area/internal standard peak area) against time, the gradient of the line was determined and half‐life (t½) and intrinsic clearance (CLint) were calculated."}, "[2]": {"test_system": "Z α1‐antitrypsin polymers in CHO‐TET‐ON‐Z‐A1AT cells", "test": "Intracellular Z α1‐antitrypsin polymer formation in CHO‐TET‐ON‐Z‐A1AT cells (2C1 staining)", "format": "cell-based", "protocol": "The ability of GSK716 to block Z α1‐antitrypsin polymerisation in the ER during folding was assessed by adding GSK716 to CHO‐TET‐ON‐Z‐A1AT cells (Ordóñez et al, 2013) with simultaneous induction of Z α1‐antitrypsin expression using doxycycline. […] Similar potency between the effects on secretion and polymerisation was observed throughout members of the lead series supporting the hypothesis that these effects are caused by the same pharmacological mode of action.\nFigure 2 GSK716 inhibits polymerisation of Z α1‐antitrypsin in cell models of disease • A GSK716 was added to CHO‐TET‐ON‐Z‐A1AT cells (Ordóñez et al, 2013) with simultaneous induction of Z α1‐antitrypsin expression using doxycycline, and polymer load was quantified with the 2C1 monoclonal antibody that is specific to pathological polymers of α1‐antitrypsin (Miranda et al, 2010). […] For every time point, NP‐40‐soluble and NP‐40‐insoluble fractions were separated and immunoprecipitated with the 2C1 mAb and resolved by 4–12% w/v SDS–PAGE and α1‐antitrypsin detected by immunoblotting. […] Cell viability was measured by Cell Counting Kit‐8. […] Samples were resolved by 4–12% w/v acrylamide SDS–PAGE and detected by autoradiography. • H The graphs show the effect of GSK716 on intracellular and extracellular Z α1‐antitrypsin (mean ± SEM, n = 2). […]"}, "[3]": {"biological_target": "polymers of Z α1‐antitrypsin (Homo sapiens, UniProt P01009, E366K)", "sequence (P01009 25-418 E366K)": "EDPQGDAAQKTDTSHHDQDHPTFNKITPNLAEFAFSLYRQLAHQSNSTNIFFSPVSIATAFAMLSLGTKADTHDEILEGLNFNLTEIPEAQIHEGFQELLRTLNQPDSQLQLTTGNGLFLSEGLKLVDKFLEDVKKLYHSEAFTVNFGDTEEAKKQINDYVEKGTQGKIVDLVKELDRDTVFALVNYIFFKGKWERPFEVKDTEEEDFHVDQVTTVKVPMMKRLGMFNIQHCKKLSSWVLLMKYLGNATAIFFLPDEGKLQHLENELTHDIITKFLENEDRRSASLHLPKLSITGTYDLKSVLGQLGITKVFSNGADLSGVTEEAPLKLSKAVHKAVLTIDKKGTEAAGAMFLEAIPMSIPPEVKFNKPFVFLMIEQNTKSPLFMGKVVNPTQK", "test": "Binding to Z α1‐antitrypsin polymers (fluorescence polarisation)", "protocol": "Figure 1 Characteristics of the lead series of chiral hydroxy‐carboxamides identified from the ELT screen • The structure of GSK425, identified from the ELT screen, and the derived compound GSK716 obtained through a structure‐based design pipeline. • The degree of polymerisation of Z α1‐antitrypsin after 72 h at 37°C, as determined by an end‐point immunoassay using the 2C1 monoclonal antibody, in varying concentrations of compound (shown in panel A). […] Data presented as mean ± SD. • The compound bound to monomeric but not polymeric Z α1‐antitrypsin (Z α1‐AT) as reported by fluorescence polarisation of an Alexa‐488‐labelled variant of GSK716. • Representative curves reporting the interaction of different concentrations of GSK716 with Z α1‐antitrypsin based on changes in intrinsic tryptophan fluorescence.\nKinetic parameters of GSK716 binding to M, Z, S (Glu264Val) and Baghdad (Ala336Pro) (Haq et al, 2016) α1‐antitrypsin were measured by detecting intrinsic tryptophan fluorescence of the protein (excitation at 280 nm and detection of emission at 320 nm) on a stopped flow apparatus (Applied Photophysics) (Kim & Yu, 1996; Dafforn et al, 1999). […]"}},
  "data": [
    {"compound": "CCC[C@@H](NC(=O)c1cccc2c1CC(=O)N2)[C@@H](O)c1cccc(F)c1C", "note": "[GSK716]", "values": [
      {"measurement": "metabolic clearance in human hepatocytes", "setting": "[1]", "value": 0.31, "unit": "ml/min/g tissue"},
      {"measurement": "intracellular formation of Z α1‐antitrypsin polymers in comparison with controls", "setting": "[2]", "value": "completely blocked"},
      {"measurement": "IC50", "setting": "[2]; doxycycline induction, n = 71, read-out: mean pIC50, intracellular formation of Z α1‐antitrypsin polymers (converted)", "value": 0.501, "unit": "µM"},
      {"measurement": "binding to polymers of Z α1‐antitrypsin", "setting": "[3]", "value": "lack of binding"}
    ]}
  ]
}
